Measurements taken from US12178811B2, “Methods of treating depressive disorders” (priority 2019, dated 2024).
Several values for one entry are separate records, joined by “and”; a condition that tells them apart may be missing. Identical values can stand only once. Like-named read-outs stand apart in the source and are kept apart here.

How the values were obtained:
[1] = Blood and brain collection after forced swim test (total brain-to-plasma ratio); type: in vivo; conditions: CD-1, brain and plasma, mouse, immediately following the forced swim test, read-out: total brain-to-plasma ratio (B/P ratio)
Protocol: Blood and Brain Collection: Immediately following the forced swim test, all animals dosed with test article were anesthetized with isoflurane inhalant, and terminal blood collection (˜1 ml) was performed via cardiac puncture into potassium EDTA blood collection tubes (SOP ROD.14.02). Plasma was isolated from whole blood by centrifugation at 3000 rpm at 4° C. for 5 minutes. Once isolated, plasma was placed in cryovials and frozen at −80° C. until shipment for bioanalysis. Following blood collection, animals were decapitated and the whole brain collected as per standard operating procedure (SOP ROD.59). Brains were weighed, flash frozen, and stored at −80° C. until shipment.

male CD-1 mice = assay: Mouse forced swim test; type: in vivo; conditions: for Latency to Immobility / Time Immobile 0-2 min / Time Immobile 0-6 min / Time Immobile 2-6 min: 30 min pretreatment, individual animals; for Latency to Immobility, Average / Time Immobile 0-2 min, Average / Time Immobile 0-6 min, Average / Time Immobile 2-6 min, Average: group average N = 10
Protocol: Objective: A study was performed to assess the potential efficacy of Compound A using the mouse forced swim test. The forced swim test is a model of behavioral despair, and is sensitive to detection of various classes of antidepressant drugs (Can et al., The Mouse Forced Swim Test. J. Vis. Exp. 2012 (59), e3638, DOI:10.3791/3638). Study Design: Forty (40) male CD-1 mice received a 1-week period of acclimation to the test facility prior to the commencement of testing (events summarized in Table 1). […] All animal use procedures were performed in accordance with the principles of the Canadian Council on Animal Care (CCAC). Formulation of Compound A: Compound A (99.4% pure) was weighed (no correction for purity) and dissolved in DMSO at 20× the intended final concentration. The 20×DMSO stock solution of Compound A was diluted 20 fold with 0.5% methyl cellulose in water to achieve the final desired concentration. […] The above formulation was kept at room temperature and stirred continuously or vortex mixed prior to each dose administration. Forced swim test: Forty (40) male CD-1 mice received the appropriate dose of the vehicle, test article, or positive control (treatments summarized in Table 3). Following a pre-determined pre-treatment time (Can et al., 2012), animals were gently placed into tall glass cylinders filled with water (20-25° C.). […] The swim test involved scoring the duration of immobility. Over a 6-minute test session, the latency to first immobility was recorded (in seconds). […] Statistical Analysis: The results in Table 4 were tested for significance using T-, univariate, and Dunnett's tests as shown in Tables 5-14.

Question: With Cc1cc(N2CCc3cc(F)ccc3C2)cc(C)c1NC(=O)CC(C)(C)C [Compound A, N-[4-(6-fluoro-3,4-dihydro-1H-isoquinolin-2-yl)-2,6-dimethylphenyl]-3,3-dimethylbutanamide] as the molecule, how does the Kp at 36 min ([1]; 1 mg/kg IP) read?
Answer: 2.2

Question: And the Kp at 36 min ([1]; 3 mg/kg IP)?
Answer: 2.2

Question: And the “Latency to Immobility” value (male CD-1 mice; Compound A 1 mg/kg IP)?
Answer: 77 s and 84 s and 206 s and 100 s and 70 s and 109 s and 144 s and 105 s and 130 s and 80 s

Question: What about the “Time Immobile 0-2 min” value (male CD-1 mice; Compound A 1 mg/kg IP) of the same molecule?
Answer: 32 sec and 28 sec and 0 sec (3×) and 16 sec and 20 sec (2×) and 4 sec and 7 sec

Question: What about the “Time Immobile 0-6 min” value (male CD-1 mice; Compound A 1 mg/kg IP) of the same molecule?
Answer: 174 s and 198 s and 33 s and 125 s and 169 s and 196 s and 134 s and 141 s and 170 s

Question: And the “Time Immobile 2-6 min” value (male CD-1 mice; Compound A 1 mg/kg IP)?
Answer: 142 s and 170 s and 33 s and 109 s and 149 s and 192 s and 134 s and 189 s and 141 s and 150 s

Question: And the “Latency to Immobility, Average” value (male CD-1 mice; Compound A 1 mg/kg IP)?
Answer: 110.5 s

Question: And the “Time Immobile 0-2 min, Average” value (male CD-1 mice; Compound A 1 mg/kg IP)?
Answer: 12.7 s

Question: What about the “Time Immobile 0-6 min, Average” value (male CD-1 mice; Compound A 1 mg/kg IP) of the same molecule?
Answer: 153.6 s

Question: What about the “Time Immobile 2-6 min, Average” value (male CD-1 mice; Compound A 1 mg/kg IP) of the same molecule?
Answer: 140.9 s

Question: And the “Latency to Immobility” value (male CD-1 mice; Compound A 3 mg/kg IP)?
Answer: 135 s and 165 s and 155 s and 86 s and 150 s and 127 s and 192 s and 162 s and 83 s and 105 s

Question: What about the “Time Immobile 0-2 min” value (male CD-1 mice; Compound A 3 mg/kg IP) of the same molecule?
Answer: 0 sec (7×) and 23 sec and 21 sec and 15 sec

Question: What about the “Time Immobile 0-6 min” value (male CD-1 mice; Compound A 3 mg/kg IP) of the same molecule?
Answer: 166 s and 144 s and 122 s and 207 s and 82 s and 146 s and 101 s and 90 s and 184 s and 181 s

Question: And the “Time Immobile 2-6 min” value (male CD-1 mice; Compound A 3 mg/kg IP)?
Answer: 166 s and 144 s and 122 s and 184 s and 82 s and 146 s and 101 s and 90 s and 163 s

Question: What about the “Latency to Immobility, Average” value (male CD-1 mice; Compound A 3 mg/kg IP) of the same molecule?
Answer: 136.0 s

Question: What about the “Time Immobile 0-2 min, Average” value (male CD-1 mice; Compound A 3 mg/kg IP) of the same molecule?
Answer: 5.9 s

Question: What about the “Time Immobile 0-6 min, Average” value (male CD-1 mice; Compound A 3 mg/kg IP) of the same molecule?
Answer: 142.3 s

Question: And the “Time Immobile 2-6 min, Average” value (male CD-1 mice; Compound A 3 mg/kg IP)?
Answer: 136.4 s

Question: What about the “effect in the mouse forced swim test model (in words)” value (male CD-1 mice; Tables 5-13) of the same molecule?
Answer: statistically significant effects
